In US11981658B2, “Substituted aminopyridine compounds as EGFR inhibitors” (YUHAN CORPORATION, priority 2021, dated 2024):
Like-named read-outs stand apart in the source and are kept apart here.

Key:
EGFR Del19/T790M/C797S = EGFR Del19/T790M/C797S (Homo sapiens, UniProt P00533, C797S/DEL746-750/T790M); assay: Biochemical EGFR kinase inhibition assay (Lance Ultra TR-FRET), triple mutant del19/T790M/C797S
In short: (§1)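 Kinase activity is measured by TR-FRET phosphopeptide detection. Compounds span 0.003 μM to 10 μM; the 1 h reaction at room temperature is quenched with EDTA, then labelled antibody (2 nM) is incubated 60 min before reading.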

EGFR L858R/T790M/C797S = EGFR L858R/T790M/C797S (Homo sapiens, UniProt P00533, C797S/L858R/T790M); assay: Biochemical EGFR kinase inhibition assay (Lance Ultra TR-FRET), triple mutant L858R/T790M/C797S
In short: as §1

EGFR Del19/C797S = EGFR Del19/C797S (Homo sapiens, UniProt P00533, C797S/DEL746-750); assay: Biochemical EGFR kinase inhibition assay (Lance Ultra TR-FRET), double mutant del19/C797S
In short: as §1

EGFR L858R/C797S = EGFR L858R/C797S (Homo sapiens, UniProt P00533, C797S/L858R); assay: Biochemical EGFR kinase inhibition assay (Lance Ultra TR-FRET), double mutant L858R/C797S
Description: Biochemical EGFR kinase assays were conducted using Lance Ultra time-resolved fluorescence resonance energy transfer (TR-FRET) technology from Perkin-Elmer. Compounds of the invention were initially diluted to 20 mM in 100% DMSO for storage and made into kinase buffer solution to create a compound concentration ranging from 0.003 μM and 10 μM.
Each kinase reactions were incubated at room temperature for 1 hour and then stopped by the addition of 4 μL of stop solution (10 mM EDTA). The specific Europium-labeled-anti-phosphopeptide antibody (PerkinElmer, AD0069) diluted in LANCE detection buffer was then added to a final concentration of 2 nM. After 60 minutes incubation at room temperature the LANCE signal was measured on an EnVision Multilabel Reader (Perkin-Elmer). Excitation wavelength was set at 320 nm and emission monitored at 615 nm (donor) and 665 nm (acceptor). The IC50 values were determined using GraphPad prism software (GraphPad Software, Inc., San Diego, CA, USA).

EGFR wildtype (WT) = EGFR wildtype (WT) (Homo sapiens, UniProt P00533); assay: Biochemical EGFR kinase inhibition assay (Lance Ultra TR-FRET), wildtype
In short: as §1

[1] = IC50 Del19/T790M/C797S (nM), 100 μM ATP
[2] = IC50 L858R/T790M/C797S (nM), 100 μM ATP
[3] = IC50 Del19/C797S (nM), 100 μM ATP
[4] = IC50 L858R/C797S (nM), 100 μM ATP
[5] = Km ATP, read-out: IC50 Del19/T790M/C797S (nM) Km ATP
[6] = Km ATP, read-out: IC50 WT (nM) Km ATP
[7] = Km ATP, read-out: IC50 L858R/T790M/C797S (nM) Km ATP
[8] = Km ATP, read-out: IC50 Del19/C797S (nM) Km ATP
[9] = Km ATP, read-out: IC50 L858R/C797S (nM) Km ATP

Chain of EGFR Del19/C797S (P00533 with tags, fused parts or gaps DEL746-750/C797S): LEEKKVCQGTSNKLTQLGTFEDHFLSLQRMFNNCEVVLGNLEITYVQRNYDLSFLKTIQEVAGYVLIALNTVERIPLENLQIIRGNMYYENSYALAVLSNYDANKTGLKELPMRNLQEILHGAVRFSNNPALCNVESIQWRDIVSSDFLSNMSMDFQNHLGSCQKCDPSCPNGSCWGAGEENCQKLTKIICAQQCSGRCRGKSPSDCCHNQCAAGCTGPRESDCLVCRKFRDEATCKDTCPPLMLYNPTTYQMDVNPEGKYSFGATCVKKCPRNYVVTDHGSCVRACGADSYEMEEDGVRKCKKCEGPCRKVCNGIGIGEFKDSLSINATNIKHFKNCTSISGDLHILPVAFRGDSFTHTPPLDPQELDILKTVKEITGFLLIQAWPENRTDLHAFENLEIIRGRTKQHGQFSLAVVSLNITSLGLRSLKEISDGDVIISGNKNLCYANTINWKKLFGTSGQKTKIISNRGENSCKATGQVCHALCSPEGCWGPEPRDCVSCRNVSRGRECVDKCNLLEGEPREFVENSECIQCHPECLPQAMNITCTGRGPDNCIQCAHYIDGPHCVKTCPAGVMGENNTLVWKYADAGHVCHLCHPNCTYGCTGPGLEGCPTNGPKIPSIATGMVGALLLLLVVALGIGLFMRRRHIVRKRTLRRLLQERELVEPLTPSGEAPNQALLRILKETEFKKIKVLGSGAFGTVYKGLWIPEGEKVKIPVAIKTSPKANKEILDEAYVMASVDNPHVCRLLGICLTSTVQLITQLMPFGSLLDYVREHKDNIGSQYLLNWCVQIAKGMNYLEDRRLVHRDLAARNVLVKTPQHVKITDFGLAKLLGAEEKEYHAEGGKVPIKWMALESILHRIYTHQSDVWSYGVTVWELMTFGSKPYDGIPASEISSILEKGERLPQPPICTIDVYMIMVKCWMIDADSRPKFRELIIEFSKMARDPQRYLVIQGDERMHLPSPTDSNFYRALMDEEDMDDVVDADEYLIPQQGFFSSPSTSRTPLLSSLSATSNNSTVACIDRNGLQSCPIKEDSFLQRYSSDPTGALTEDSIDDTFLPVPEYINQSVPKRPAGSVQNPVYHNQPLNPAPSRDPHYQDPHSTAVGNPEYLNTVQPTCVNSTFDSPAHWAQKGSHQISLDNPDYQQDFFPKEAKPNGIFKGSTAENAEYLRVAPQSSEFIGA
Chain of EGFR L858R/C797S (P00533 25-1210 C797S/L858R): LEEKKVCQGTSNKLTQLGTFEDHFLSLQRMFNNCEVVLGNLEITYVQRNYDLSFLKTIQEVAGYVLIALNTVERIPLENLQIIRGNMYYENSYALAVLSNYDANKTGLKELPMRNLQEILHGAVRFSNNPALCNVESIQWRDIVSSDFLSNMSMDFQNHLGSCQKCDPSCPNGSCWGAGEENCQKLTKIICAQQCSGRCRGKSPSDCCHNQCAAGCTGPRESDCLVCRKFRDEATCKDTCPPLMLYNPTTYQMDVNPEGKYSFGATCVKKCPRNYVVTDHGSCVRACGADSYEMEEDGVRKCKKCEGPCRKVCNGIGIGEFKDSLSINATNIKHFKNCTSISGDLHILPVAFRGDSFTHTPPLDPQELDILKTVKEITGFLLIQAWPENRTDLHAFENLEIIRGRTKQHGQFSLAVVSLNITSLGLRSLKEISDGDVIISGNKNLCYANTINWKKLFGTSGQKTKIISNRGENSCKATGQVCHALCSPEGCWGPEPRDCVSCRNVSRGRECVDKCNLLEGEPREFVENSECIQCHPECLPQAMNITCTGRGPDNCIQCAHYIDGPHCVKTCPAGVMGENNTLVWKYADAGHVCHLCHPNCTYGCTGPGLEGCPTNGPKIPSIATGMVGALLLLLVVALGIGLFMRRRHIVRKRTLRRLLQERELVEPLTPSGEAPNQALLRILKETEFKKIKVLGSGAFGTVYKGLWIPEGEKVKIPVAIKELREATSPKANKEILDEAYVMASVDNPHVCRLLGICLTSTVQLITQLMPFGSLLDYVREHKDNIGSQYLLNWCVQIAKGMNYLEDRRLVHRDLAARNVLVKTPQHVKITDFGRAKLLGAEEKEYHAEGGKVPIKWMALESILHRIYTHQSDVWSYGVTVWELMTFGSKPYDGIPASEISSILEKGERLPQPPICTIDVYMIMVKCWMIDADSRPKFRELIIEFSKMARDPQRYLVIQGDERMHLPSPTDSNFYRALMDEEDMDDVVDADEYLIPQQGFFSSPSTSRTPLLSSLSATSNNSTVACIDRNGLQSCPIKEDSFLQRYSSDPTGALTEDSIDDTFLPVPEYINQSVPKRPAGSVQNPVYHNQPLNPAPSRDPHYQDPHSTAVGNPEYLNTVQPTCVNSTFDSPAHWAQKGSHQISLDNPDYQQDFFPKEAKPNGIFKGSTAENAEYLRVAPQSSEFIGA
Chain of EGFR Del19/T790M/C797S (P00533 with tags, fused parts or gaps DEL746-750/T790M/C797S): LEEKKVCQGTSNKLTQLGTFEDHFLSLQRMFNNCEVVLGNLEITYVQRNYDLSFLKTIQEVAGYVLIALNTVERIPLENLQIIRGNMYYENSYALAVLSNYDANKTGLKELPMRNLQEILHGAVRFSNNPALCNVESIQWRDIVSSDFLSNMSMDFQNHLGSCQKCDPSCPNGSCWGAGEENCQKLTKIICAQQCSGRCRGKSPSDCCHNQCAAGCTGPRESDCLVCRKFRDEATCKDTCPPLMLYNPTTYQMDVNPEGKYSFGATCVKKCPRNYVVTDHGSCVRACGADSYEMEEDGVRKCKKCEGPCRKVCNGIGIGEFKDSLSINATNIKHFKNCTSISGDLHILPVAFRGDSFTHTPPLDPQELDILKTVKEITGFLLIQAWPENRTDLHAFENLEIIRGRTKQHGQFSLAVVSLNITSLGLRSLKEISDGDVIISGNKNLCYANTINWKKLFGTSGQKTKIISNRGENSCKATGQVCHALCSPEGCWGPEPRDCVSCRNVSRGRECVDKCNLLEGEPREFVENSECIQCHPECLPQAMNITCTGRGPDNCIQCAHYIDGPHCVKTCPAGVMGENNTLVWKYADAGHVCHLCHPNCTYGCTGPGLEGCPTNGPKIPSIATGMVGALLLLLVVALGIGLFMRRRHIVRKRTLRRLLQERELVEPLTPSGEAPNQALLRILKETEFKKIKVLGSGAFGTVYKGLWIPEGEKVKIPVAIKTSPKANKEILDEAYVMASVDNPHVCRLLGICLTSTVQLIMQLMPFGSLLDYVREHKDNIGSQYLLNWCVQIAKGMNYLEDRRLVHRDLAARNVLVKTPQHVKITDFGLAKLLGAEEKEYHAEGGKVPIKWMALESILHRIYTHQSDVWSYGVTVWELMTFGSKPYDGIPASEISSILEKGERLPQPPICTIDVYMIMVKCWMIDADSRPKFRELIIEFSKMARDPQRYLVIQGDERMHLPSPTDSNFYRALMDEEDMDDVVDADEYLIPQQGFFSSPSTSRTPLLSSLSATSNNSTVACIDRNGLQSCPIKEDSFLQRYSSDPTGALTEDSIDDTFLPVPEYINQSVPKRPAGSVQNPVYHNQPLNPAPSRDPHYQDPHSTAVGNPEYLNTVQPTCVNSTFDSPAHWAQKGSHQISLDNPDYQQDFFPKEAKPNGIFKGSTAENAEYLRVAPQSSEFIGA
Chain of EGFR wildtype (WT) (P00533 25-1210): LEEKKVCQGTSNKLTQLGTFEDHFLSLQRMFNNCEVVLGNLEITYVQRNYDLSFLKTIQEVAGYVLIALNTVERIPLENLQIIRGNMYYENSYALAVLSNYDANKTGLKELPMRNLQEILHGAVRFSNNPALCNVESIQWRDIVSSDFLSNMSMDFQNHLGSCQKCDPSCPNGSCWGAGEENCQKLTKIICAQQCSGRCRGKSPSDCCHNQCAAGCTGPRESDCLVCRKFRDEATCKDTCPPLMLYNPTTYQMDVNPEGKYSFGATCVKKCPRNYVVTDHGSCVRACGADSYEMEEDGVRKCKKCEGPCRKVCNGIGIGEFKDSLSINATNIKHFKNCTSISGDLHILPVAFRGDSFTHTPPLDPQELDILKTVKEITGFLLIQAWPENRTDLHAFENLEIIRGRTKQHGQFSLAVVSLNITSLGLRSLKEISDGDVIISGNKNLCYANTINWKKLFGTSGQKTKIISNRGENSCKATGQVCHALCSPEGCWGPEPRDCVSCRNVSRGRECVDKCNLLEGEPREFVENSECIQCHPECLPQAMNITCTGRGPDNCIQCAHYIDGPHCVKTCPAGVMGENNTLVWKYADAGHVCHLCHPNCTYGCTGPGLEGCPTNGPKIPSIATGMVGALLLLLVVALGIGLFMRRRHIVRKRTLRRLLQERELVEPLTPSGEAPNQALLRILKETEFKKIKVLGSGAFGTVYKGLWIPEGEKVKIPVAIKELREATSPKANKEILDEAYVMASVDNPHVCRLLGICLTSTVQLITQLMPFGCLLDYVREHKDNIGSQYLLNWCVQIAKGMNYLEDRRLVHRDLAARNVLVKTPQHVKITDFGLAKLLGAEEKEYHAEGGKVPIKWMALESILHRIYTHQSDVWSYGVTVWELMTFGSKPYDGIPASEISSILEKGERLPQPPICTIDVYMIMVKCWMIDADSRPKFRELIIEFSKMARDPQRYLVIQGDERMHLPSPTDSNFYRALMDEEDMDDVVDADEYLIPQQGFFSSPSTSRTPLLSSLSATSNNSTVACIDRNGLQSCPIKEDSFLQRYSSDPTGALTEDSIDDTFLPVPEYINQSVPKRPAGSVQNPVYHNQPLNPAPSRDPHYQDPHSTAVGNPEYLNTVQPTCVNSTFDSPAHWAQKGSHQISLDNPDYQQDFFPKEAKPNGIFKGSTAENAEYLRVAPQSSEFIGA

**Q.** What does the source list for `Cn1cc(C#Cc2cnc(Nc3ccnc(-c4cnn(S(=O)(=O)C5CC5)c4)n3)cc2N2CCC(CO)C2)cn1` (stereo not drawn) [Example 33, (1-(2-((2-(1-(Cyclopropylsulfonyl)-1H-pyrazol-4-yl)pyrimidin-4-yl)amino)-5-((1-methyl-1H-pyrazol-4-yl)ethynyl)pyridin-4-yl)pyrrolidin-3-yl)methanol]?
**A.** IC50 (EGFR Del19/T790M/C797S; [1]): 1.9 nM; IC50 (EGFR L858R/T790M/C797S; [2]): 3.7 nM; IC50 (EGFR Del19/C797S; [3]): 10.2 nM; IC50 (EGFR L858R/C797S; [4]): 152 nM; IC50 (EGFR wildtype (WT); IC50 WT (nM), 100 μM ATP): > 10000 nM

**Q.** Which results are given for `O=S(=O)(C1CC1)n1cc(-c2nccc(Nc3cc(N4CCC(CO)C4)c(C#Cc4cnn(CCF)c4)cn3)n2)cn1` (stereo not drawn) [Example 34, (1-(2-((2-(1-(Cyclopropylsulfonyl)-1H-pyrazol-4-yl)pyrimidin-4-yl)amino)-5-((1-(2-fluoroethyl)-1H-pyrazol-4-yl)ethynyl)pyridin-4-yl)pyrrolidin-3-yl)methanol]?
**A.** IC50 (EGFR Del19/T790M/C797S; [1]): 1.8 nM; IC50 (EGFR Del19/T790M/C797S; [5]): 2.1 nM; IC50 (EGFR L858R/T790M/C797S; [2]): 6.8 nM; IC50 (EGFR Del19/C797S; [3]): 11.5 nM; IC50 (EGFR L858R/C797S; [4]): 236 nM; IC50 (EGFR wildtype (WT); IC50 WT (nM), 100 μM ATP): > 10000 nM; IC50 (EGFR wildtype (WT); [6]): 27.9 nM

**Q.** Which results are given for `Cn1cc(C#Cc2cnc(Nc3ccnc(-c4cnn(S(=O)(=O)C5CC5)c4)n3)cc2N2CC(C(C)(C)O)C2)cn1` [Example 35, 2-(1-(2-((2-(1-(Cyclopropylsulfonyl)-1H-pyrazol-4-yl)pyrimidin-4-yl)amino)-5-((1-methyl-1H-pyrazol-4-yl)ethynyl)pyridin-4-yl)azetidin-3-yl)propan-2-ol]?
**A.** IC50 (EGFR Del19/T790M/C797S; [1]): 1.9 nM; IC50 (EGFR Del19/T790M/C797S; [5]): 0.9 nM; IC50 (EGFR L858R/T790M/C797S; [2]): 2.4 nM; IC50 (EGFR L858R/T790M/C797S; [7]): 2.4 nM; IC50 (EGFR Del19/C797S; [3]): 27.3 nM; IC50 (EGFR Del19/C797S; [8]): 28 nM; IC50 (EGFR L858R/C797S; [4]): 53 nM; IC50 (EGFR L858R/C797S; [9]): 34.2 nM; IC50 (EGFR wildtype (WT); IC50 WT (nM), 100 μM ATP): > 10000 nM; IC50 (EGFR wildtype (WT); [6]): 99.6 nM

**Q.** Which results are given for `CC(C)(O)C1CN(c2cc(Nc3ccnc(-c4cnn(S(=O)(=O)C5CC5)c4)n3)ncc2C#Cc2cnn(CCF)c2)C1` [Example 36, 2-(1-(2-((2-(1-(Cyclopropylsulfonyl)-1H-pyrazol-4-yl)pyrimidin-4-yl)amino)-5-((1-(2-fluoroethyl)-1H-pyrazol-4-yl)ethynyl)pyridin-4-yl)azetidin-3-yl)propan-2-ol]?
**A.** IC50 (EGFR Del19/T790M/C797S; [1]): 2.1 nM; IC50 (EGFR L858R/T790M/C797S; [2]): 3 nM; IC50 (EGFR Del19/C797S; [3]): 25.5 nM; IC50 (EGFR L858R/C797S; [4]): 100 nM; IC50 (EGFR wildtype (WT); IC50 WT (nM), 100 μM ATP): > 10000 nM

**Q.** Which results are given for `Cn1cc(C#Cc2cnc(Nc3ccnc(-c4cnn(S(=O)(=O)C5CC5)c4)n3)cc2NCC(C)(C)CO)cn1` [Example 39, 3-((2-((2-(1-Cyclopropylsulfonylpyrazol-4-yl)pyrimidin-4-yl)amino)-5-(2-(1-methylpyrazol-4-yl)ethynyl)-4-pyridyl)amino)-2,2-dimethyl-propan-1-ol]?
**A.** IC50 (EGFR Del19/T790M/C797S; [1]): 2.6 nM; IC50 (EGFR L858R/T790M/C797S; [2]): 8.8 nM; IC50 (EGFR Del19/C797S; [3]): 53.6 nM; IC50 (EGFR L858R/C797S; [4]): 203 nM; IC50 (EGFR L858R/C797S; [9]): 32.3 nM; IC50 (EGFR wildtype (WT); IC50 WT (nM), 100 μM ATP): > 10000 nM

**Q.** Which IC50 (EGFR Del19/T790M/C797S; [1]) does the source give for `CC(C)(CO)CNc1cc(Nc2ccnc(-c3cnn(S(=O)(=O)C4CC4)c3)n2)ncc1C#Cc1cnn(CCF)c1` [Example 40, 3-((2-((2-(1-Cyclopropylsulfonylpyrazol-4-yl)pyrimidin-4-yl)amino)-5-(2-(1-(2-fluoroethyl)pyrazol-4-yl)ethynyl)-4-pyridyl)amino)-2,2-dimethyl-propan-1-ol] here?
**A.** 4.8 nM

**Q.** And the IC50 (EGFR L858R/T790M/C797S; [2])?
**A.** 13.1 nM

**Q.** What about the IC50 (EGFR Del19/C797S; [3]) of the same compound?
**A.** 49.1 nM

**Q.** And the IC50 (EGFR L858R/C797S; [4])?
**A.** 278 nM

**Q.** What about the IC50 (EGFR wildtype (WT); IC50 WT (nM), 100 μM ATP) of the same compound?
**A.** > 10000 nM

**Q.** For `Cn1cc(C#Cc2cnc(Nc3ccnc(-c4cnn(S(=O)(=O)C5CC5)c4)n3)cc2N[C@H]2CC[C@@H](O)CC2)cn1` [Example 41, (1s, 4s)-4-((2-((2-(1-(Cyclopropylsulfonyl)-1H-pyrazol-4-yl)pyrimidin-4-yl)amino)-5-((1-methyl-1H-pyrazol-4-yl)ethynyl)pyridin-4-yl)amino)cyclohexan-1-ol], which IC50 (EGFR Del19/T790M/C797S; [1]) is on record?
**A.** 0.6 nM

**Q.** And the IC50 (EGFR Del19/T790M/C797S; [5])?
**A.** 0.5 nM

**Q.** And the IC50 (EGFR L858R/T790M/C797S; [2])?
**A.** 0.8 nM

**Q.** And the IC50 (EGFR L858R/T790M/C797S; [7])?
**A.** 0.2 nM

**Q.** What about the IC50 (EGFR Del19/C797S; [3]) of the same compound?
**A.** 2.8 nM

**Q.** And the IC50 (EGFR Del19/C797S; [8])?
**A.** 1.3 nM

**Q.** And the IC50 (EGFR L858R/C797S; [4])?
**A.** 10 nM

**Q.** And the IC50 (EGFR L858R/C797S; [9])?
**A.** 1.5 nM

**Q.** And the IC50 (EGFR wildtype (WT); IC50 WT (nM), 100 μM ATP)?
**A.** > 10000 nM

**Q.** What about the IC50 (EGFR wildtype (WT); [6]) of the same compound?
**A.** 23.8 nM
